# Measurements published in US11286278B2, “DPEP-1 binding agents and methods of use” (Arch Biopartners, Inc., priority 2018, dated 2022).
# “Also recorded” adds a separate entry of the source. Ends that are not written are not given here.
# Tests used:
# DPEP1 = target: T1, DPEP1 (Homo sapiens, UniProt P16444); assay: Immunofluorescence binding of Alexa-488 conjugated peptides to Cos-1 cells transfected with human DPEP-1; parameters: expressed in transfected cells; host or cells: Cos-1; details: Alexa-488 conjugate, on ice 30 minutes
# T1 sequence (P16444 17-385): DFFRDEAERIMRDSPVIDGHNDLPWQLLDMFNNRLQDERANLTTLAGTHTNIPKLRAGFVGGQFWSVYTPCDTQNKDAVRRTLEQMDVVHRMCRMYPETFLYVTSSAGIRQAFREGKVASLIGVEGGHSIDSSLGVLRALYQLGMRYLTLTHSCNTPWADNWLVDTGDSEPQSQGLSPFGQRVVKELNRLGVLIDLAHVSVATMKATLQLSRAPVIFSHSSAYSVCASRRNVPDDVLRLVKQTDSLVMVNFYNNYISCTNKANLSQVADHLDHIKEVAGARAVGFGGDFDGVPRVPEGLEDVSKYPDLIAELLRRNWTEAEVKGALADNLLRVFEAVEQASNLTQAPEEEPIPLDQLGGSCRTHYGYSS
# Protocol: 24 hours after transfection, DPEP-1 expressing cells weer reseeded on 24 well collagen coated (neutralized) plates and allowed to grow for 24 hours at 37° C. […] Cells were blocked with FBS/NBSA/Tween in PBS for 30 minutes on ice. Cells were then washed with PBS and incubated with Alexa-488 (green) conjugated LSALT, GFE-1, control peptide or DPEP-1 antibody ( 1/100) (Sigma) on ice for 30 minutes. After incubation, cells were washed with PBS and stained with DAPI for 4 minutes on ice. Cells were again washed with PBS, fixed using 4% paraformaldehyde and immunofluoresence microscopy was performed to assess binding. Proteins from human DPEP-1 transfected cells were isolated after 48 hours using octyl-glucoside/RIPA in the absence of protease inhibitors. […] Values shown are the mean ±s.e.m. from six independent experiments; asterisks (***) indicate P<0.001 as compared with DPEP-1 transfected cells (one-way ANOVA with the Neuman-Keuls post-test)[…]. Proteins from transfected cells were isolated after 48 hours using octyl-glucoside/RIPA lysis buffer and western blot analysis was performed to assess DPEP-1 expression using DPEP-1 antibody (Sigma). […]
# [1] = Circular dichroism spectroscopy of LSALT peptide and analogs; type: physicochemical; parameters: Inducible Helical Structure (50% TFE-benign): unit not given here
# Protocol: The physical and chemical properties of protein therapeutics are critical factors that influence the ease of manufacturing, development and clinical use. The LSALT peptide was evaluated in terms of its solubility, aggregation state and stability using a variety of biophysical methods.
# In circular dichroism spectroscopy the ellipticity value at 222 nm is a measure of a-helical content. 50% trifluoroethanol is a hydrophobic solvent and induces α-helical structure if the structure can be induced. All of the peptides tested can be induced to adopt α-helical structure. The peptides are random coils in benign conditions (non-denaturing). The buffer conditions were aqueous phosphate, pH 7.0.
# [2] = test system: DPEP1-expressing COS1 monolayers; assay: Cancer cell binding to DPEP1-expressing COS1 monolayers; type: cell-based; details: LSALT 50 μM
# Protocol: Cos-1 cells were transfected with 3 μg of human DPEP-1 cDNA. Transfected cells were reseeded 24 hours after on 12 or 24 well places. 48 hours later, 70 W melanoma cells expressing stable GFP-luciferase were harvested using Puck's EDTA and 10×10^3 cells were seeded on top of the DPEP-1 expressing Cos-1 monolayer. Cells were incubated for 4 hours at 37 C. After incubation cells were vigorously washed two times with PBS. Cells were then fixed using paraformaldehyde (4%). The number 70 W melanoma cells bound/adhered were counted under 10× magnification over 10 different field of views using an inverted fluorescence microscope (FIG. 24A). […] A unpaired 2-tailed Student's t-test was performed to compare the binding of 70 W melanoma cells to DPEP-1 transfected cells against the control of mock transfected cells. Values shown are from three independent experiments; asterisks (***) indicate P<0.001 as compared with mock transfected cells.
# LSALT decreases binding of metastatic cancer cells to DPEP1-expressing COS1 monolayers in vitro. […] FIGS. 21B-C show quantification of murine melanoma B16-F10 (B) or murine breast cancer E0771.LMB (C) cells that bind to COS1 (control) or DPEP1 COS1 in the absence or presence of LSALT (50 μM).
substance,measurement,setting,value
H-LSALTPSPSWLKYKAL [LSALT],binding of fluorescently labelled peptide to human DPEP-1 transfected Cos-1 cells,DPEP1,Binds; also recorded: Fluorescent peptide binding is only seen with DPEP1 transfection
same,Inducible Helical Structure (50% TFE-benign),[1]; 222 nm,"23,925"
same,[θ] (222 nm) 50% TFE,"[1]; 222 nm, 50% TFE",−72298
same,% Inducible Helical Structure (Inducible/50% TFE),"[1]; 222 nm, 50% TFE is considered 100% folded",33.1%
same,[θ] (222 nm) Benign (No TFE),"[1]; 222 nm, benign buffer (100 mM KCl, 50 mM Na2HPO4/NaH2PO4, pH 7.0)",−48373
same,secondary structure by CD,"[1]; aqueous buffer / benign conditions, pH 7.0",minima at 222 nm characteristic of a α-helical conformation
same,binding of murine breast cancer cells (E0771.LMB) to DPEP1 transfected COS-1 cells,[2],inhibits binding of murine cancer cells to DPEP1
same,binding of murine melanoma cells (B16-F10) to DPEP1 transfected COS-1 cells,[2],inhibits binding of murine cancer cells to DPEP1
